Assay results published in patent US9988341B2, “Bacterial topoisomerase inhibitors and use thereof” (THE FLORIDA INTERNATIONAL UNIVERSITY BOARD OF TRUSTEES, priority 2016, dated 2018).
Read-outs that look alike come from different tables or passages of the source.

How the values were obtained:
[1] = molecular target: E. coli topoisomerase I (Escherichia coli, UniProt P06612); test: Bacterial topoisomerase I relaxation activity inhibition assay (EcTopI); assay type: biochemical; conditions: Table 1; individual compounds tested as crude material; read-out: EcTopI relaxation inhibition (IC50)
Method: The relaxation activity of bacterial topoisomerase I was assayed in a buffer containing 10 mM Tris-HCl, pH 8.0, 50 mM NaCl, 0.1 mg/mL gelatin, and 0.5 mM MgCl2. One microliter of the compounds dissolved in DMF (dimethylformamide) or solvent alone was mixed with 10 μl of the reaction buffer containing 10 ng of enzyme before the addition of 9 μl of reaction buffer containing 160 ng of supercoiled pBAD/Thio plasmid DNA purified by cesium chloride gradient as substrate. Following incubation at 37° C. for 30 min, the reactions were terminated by the addition of 4 μl of 50% glycerol, 50 mM EDTA, and 0.5% (v/v) bromophenol blue, and analyzed by agarose gel electrophoresis. The gels were stained in ethidium bromide and photographed under UV light.

[2] = molecular target: T1, Human Topoisomerase IIα (Homo sapiens, UniProt P11388); test: Human topoisomerase IIα decatenation inhibition assay; assay type: biochemical
T1 construct: purchased TopoGen
Method: Human Topoisomerase IIα (obtained from TopoGen) assays were carried out by adding the compounds to 180 ng of kinetoplast DNA (kDNA) in the buffer supplied by the manufacturer before the addition of 2 U of the enzyme. The samples were incubated for 15 minutes at 37° C. before the addition of 4 μl of stop buffer containing 5% sarkosyl, 0.0025% bromophenol blue, and 25% glycerol. The reactions were then analyzed by electrophoresis in 1% agarose gels containing 0.5 μg ml^−1 ethidium bromide before being photographed under UV light.

[3] = molecular target: T2, E. coli DNA gyrase (Escherichia coli, UniProt P0AES4+P0AES6); test: DNA gyrase supercoiling inhibition assay; assay type: biochemical
T2 construct: purchased New England BioLabs
Method: DNA gyrase (obtained from New England BioLabs) supercoiling assays were carried out by mixing the compounds with 2 U of the enzyme in reaction buffer supplied by the manufacturer, followed by the addition of 300 ng of relaxed covalently closed circular DNA was for a final reaction volume of 20 μL. The samples were incubated at 37° C. for 30 minutes before being terminated by the addition of a buffer containing 5% SDS, 0.25% bromophenol blue, and 25% glycerol. The reactions were then analyzed by agarose gel electrophoresis.

[4] = molecular target: T3, Human topoisomerase I (Homo sapiens, UniProt P11387); test: Human topoisomerase I relaxation inhibition assay; assay type: biochemical
T3 construct: purchased TopoGen
T3 sequence (P11387 1-765): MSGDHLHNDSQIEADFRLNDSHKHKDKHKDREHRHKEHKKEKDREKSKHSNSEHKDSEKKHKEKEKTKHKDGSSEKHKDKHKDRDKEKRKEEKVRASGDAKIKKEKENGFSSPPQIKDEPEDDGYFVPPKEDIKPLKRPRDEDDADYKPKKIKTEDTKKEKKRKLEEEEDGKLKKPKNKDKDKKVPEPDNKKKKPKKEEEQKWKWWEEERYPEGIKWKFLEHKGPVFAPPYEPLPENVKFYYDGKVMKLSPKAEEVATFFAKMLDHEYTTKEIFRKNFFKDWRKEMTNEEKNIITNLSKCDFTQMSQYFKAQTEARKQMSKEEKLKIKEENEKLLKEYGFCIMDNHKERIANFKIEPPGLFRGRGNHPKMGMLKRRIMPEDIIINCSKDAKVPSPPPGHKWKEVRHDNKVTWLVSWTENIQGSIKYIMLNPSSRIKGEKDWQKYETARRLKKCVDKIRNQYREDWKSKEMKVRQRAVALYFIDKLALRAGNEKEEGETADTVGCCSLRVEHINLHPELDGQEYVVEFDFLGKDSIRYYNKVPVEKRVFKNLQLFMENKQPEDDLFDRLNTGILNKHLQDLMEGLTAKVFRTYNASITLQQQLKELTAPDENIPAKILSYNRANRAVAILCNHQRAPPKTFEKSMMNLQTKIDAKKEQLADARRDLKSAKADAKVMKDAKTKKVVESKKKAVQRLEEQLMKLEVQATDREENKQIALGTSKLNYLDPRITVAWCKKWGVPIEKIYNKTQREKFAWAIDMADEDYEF
Method: Human topoisomerase I (obtained from TopoGen) relaxation assays were carried out with 0.5 U of enzyme in reaction buffer supplied by the manufacturer. The enzyme was mixed with the indicated concentration of compound dissolved before 160 ng of supercoiled pBAD/Thio plasmid DNA was added in the same buffer, for a final volume of 20 μL. Following incubation at 37° C. for 30 minutes, the reactions were terminated with a buffer containing 5% SDS, 0.25% bromophenol blue, and 25% glycerol, and analyzed by agarose gel electrophoresis.

[5] = molecular target: M. tuberculosis topoisomerase I (Mycobacterium tuberculosis, UniProt P9WG49); test: biochemical; conditions: Table 6; read-out: IC50 M. tuberculosis topoisomerase I
[6] = supercoiling, read-out: IC50 E. coli DNA gyrase

T1 sequence (P11388 whole entry): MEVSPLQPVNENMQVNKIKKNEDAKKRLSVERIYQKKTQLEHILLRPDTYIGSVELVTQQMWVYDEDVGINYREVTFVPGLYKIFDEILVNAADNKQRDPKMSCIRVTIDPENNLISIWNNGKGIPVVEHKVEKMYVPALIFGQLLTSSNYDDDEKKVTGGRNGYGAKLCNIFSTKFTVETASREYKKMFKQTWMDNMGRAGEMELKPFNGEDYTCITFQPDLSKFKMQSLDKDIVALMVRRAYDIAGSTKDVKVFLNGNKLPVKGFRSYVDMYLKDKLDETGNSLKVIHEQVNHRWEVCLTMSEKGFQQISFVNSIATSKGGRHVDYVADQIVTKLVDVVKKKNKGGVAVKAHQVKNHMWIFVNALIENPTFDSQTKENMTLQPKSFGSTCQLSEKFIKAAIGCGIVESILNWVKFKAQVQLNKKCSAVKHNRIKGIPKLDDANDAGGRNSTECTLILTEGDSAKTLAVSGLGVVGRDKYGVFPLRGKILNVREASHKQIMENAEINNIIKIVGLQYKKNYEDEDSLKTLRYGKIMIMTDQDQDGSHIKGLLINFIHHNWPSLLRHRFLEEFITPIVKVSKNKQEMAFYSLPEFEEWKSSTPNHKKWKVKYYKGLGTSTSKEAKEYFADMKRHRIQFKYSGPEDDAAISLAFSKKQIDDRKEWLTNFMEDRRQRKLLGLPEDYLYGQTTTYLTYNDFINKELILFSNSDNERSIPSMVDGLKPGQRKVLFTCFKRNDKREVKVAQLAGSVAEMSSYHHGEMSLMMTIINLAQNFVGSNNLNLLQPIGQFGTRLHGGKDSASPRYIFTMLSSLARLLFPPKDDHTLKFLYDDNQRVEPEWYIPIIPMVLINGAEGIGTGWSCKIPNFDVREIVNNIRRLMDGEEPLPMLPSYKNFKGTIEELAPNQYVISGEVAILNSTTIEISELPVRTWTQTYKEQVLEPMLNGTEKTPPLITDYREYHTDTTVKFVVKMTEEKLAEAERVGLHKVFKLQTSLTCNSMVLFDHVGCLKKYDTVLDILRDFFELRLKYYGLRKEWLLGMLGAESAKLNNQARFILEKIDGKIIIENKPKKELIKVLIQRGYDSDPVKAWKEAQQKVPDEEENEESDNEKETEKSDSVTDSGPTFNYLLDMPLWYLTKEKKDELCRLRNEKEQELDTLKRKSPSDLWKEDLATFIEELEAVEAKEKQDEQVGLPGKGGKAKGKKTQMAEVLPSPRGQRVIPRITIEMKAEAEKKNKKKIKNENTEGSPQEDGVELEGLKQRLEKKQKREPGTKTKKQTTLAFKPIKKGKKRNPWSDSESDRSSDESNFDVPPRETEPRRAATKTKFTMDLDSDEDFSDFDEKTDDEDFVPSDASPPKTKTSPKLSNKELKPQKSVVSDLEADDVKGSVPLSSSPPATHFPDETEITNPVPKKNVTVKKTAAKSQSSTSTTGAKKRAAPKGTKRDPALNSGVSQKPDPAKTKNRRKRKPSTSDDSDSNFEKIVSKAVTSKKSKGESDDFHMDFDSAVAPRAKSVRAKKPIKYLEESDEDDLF
M. tuberculosis topoisomerase I, sequence (P9WG49 whole entry): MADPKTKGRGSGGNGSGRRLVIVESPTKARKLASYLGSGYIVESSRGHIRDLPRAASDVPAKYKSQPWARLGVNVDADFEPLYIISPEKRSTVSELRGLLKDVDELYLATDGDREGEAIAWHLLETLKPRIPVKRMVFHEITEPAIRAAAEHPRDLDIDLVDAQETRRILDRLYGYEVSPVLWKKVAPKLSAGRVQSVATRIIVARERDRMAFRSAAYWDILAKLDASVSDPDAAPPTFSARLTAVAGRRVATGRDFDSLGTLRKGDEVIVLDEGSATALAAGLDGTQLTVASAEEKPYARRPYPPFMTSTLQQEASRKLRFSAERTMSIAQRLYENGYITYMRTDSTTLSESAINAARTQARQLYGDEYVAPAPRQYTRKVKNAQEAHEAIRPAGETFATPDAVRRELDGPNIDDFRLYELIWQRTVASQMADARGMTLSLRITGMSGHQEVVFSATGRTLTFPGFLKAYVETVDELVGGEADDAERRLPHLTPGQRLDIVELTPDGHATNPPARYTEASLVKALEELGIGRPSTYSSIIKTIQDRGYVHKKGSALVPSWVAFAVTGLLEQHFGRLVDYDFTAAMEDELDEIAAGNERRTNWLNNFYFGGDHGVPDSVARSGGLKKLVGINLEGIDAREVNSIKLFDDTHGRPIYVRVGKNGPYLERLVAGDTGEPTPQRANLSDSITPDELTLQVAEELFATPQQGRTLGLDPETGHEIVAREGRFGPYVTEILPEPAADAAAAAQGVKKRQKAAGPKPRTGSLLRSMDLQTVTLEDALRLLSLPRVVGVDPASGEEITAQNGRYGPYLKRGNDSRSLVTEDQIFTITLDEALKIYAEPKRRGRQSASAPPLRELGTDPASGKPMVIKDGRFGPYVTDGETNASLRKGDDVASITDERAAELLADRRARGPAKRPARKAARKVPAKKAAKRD
T2 sequence (P0AES4 whole entry, one chain of several): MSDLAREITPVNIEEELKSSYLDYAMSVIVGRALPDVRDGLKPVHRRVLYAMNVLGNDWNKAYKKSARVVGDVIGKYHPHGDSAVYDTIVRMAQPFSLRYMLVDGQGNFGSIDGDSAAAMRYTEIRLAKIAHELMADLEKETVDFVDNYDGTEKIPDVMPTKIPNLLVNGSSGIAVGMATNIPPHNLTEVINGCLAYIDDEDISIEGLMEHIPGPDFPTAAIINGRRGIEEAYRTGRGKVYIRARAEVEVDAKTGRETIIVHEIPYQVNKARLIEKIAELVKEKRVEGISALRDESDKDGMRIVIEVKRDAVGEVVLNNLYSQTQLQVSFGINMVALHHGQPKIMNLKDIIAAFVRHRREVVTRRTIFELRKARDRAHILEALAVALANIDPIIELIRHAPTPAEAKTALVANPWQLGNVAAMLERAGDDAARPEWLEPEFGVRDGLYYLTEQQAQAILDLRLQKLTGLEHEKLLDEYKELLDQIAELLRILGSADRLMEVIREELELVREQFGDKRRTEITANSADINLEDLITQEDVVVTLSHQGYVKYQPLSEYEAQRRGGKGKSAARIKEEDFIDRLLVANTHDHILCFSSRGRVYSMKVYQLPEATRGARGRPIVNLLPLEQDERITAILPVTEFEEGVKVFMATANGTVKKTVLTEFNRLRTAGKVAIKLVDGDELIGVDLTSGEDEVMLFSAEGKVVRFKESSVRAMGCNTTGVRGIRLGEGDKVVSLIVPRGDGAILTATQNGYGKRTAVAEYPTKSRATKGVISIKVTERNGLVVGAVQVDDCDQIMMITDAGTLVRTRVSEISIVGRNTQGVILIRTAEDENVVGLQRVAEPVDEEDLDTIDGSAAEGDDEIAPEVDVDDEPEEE
E. coli topoisomerase I, sequence (P06612 whole entry): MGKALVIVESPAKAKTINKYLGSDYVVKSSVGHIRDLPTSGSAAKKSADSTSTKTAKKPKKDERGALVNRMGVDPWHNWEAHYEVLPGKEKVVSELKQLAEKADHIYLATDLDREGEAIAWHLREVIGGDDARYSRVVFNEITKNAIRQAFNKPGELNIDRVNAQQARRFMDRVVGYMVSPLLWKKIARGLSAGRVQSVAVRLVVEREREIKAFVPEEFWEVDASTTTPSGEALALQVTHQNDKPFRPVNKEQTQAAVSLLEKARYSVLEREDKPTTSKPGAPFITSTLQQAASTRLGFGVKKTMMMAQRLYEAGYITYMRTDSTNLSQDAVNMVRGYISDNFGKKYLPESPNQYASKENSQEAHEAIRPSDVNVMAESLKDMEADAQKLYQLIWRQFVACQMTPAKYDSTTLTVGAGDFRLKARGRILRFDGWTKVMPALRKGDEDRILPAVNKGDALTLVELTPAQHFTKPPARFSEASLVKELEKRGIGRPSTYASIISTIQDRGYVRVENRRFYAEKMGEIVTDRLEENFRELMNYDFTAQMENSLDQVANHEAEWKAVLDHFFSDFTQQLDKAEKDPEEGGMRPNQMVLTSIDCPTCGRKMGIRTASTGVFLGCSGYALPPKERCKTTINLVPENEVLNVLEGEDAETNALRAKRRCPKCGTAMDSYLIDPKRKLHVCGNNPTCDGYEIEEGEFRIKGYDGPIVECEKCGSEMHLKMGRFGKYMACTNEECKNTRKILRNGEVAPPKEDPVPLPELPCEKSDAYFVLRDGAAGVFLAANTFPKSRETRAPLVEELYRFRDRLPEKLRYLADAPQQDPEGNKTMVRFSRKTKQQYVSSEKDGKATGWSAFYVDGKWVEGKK

SMILES | IC50 [1] [µM] | further results
CNCCCC[C@@H](CN)NC[C@H](CCCCNC)NCCCc1cccc(Br)c1 [Compound 2471-1] | 160 | 
CNCCCC[C@@H](CN)NC[C@H](CCCNC(=N)N)NCCCc1cccc(Br)c1 [Compound 2471-4] | 160 | 
CNCCCC[C@@H](CN)NC[C@H](CCCNC(=N)N)NCCCc1ccc(O)c(O)c1 [Compound 2471-5] | > 160 | 
CCC[C@H](CN[C@H](CN)CCCCNC)NCCCc1cccc(Br)c1 [Compound 2471-7] | 160 | 
CCC[C@H](CN[C@H](CN)CCCCNC)NCCCc1ccc(O)c(O)c1 [Compound 2471-8] | > 160 | 
CCCC[C@@H](CN[C@H](CN)CCCCNC)NCCCc1cccc(Br)c1 [Compound 2471-10] | 160 | 
CCCC[C@@H](CN[C@H](CN)CCCCNC)NCCCc1ccc(O)c(O)c1 [Compound 2471-11] | > 160 | 
CNCCCC[C@@H](CN[C@H](CN)CCCN)NCCCc1cccc(Br)c1 [Compound 2471-13] | 160 | 
CNCCCC[C@@H](CN[C@H](CN)CCCN)NCCCc1ccc(O)c(O)c1 [Compound 2471-14] | > 160 | 
N=C(N)NCCC[C@@H](CN[C@H](CN)CCCN)NCCCc1ccc(O)c(O)c1 [Compound 2471-17] | > 160 | 
CCC[C@H](CN[C@H](CN)CCCN)NCCCc1cccc(Br)c1 [Compound 2471-19] | 160 | 
CCC[C@H](CN[C@H](CN)CCCN)NCCCc1ccc(O)c(O)c1 [Compound 2471-20] | > 160 | 
CCCC[C@@H](CN[C@H](CN)CCCN)NCCCc1cccc(Br)c1 [Compound 2471-22] | 160 | 
CCCC[C@@H](CN[C@H](CN)CCCN)NCCCc1ccc(O)c(O)c1 [Compound 2471-23] | > 160 | 
CNCCCC[C@H](CN)NC[C@H](CCCCNC)NCCCc1cccc(Br)c1 [Compound 2471-25] | 160 | 
CNCCCC[C@H](CN)NC[C@H](CCCNC(=N)N)NCCCc1ccc(O)c(O)c1 [Compound 2471-29] | 120 | 
CCC[C@H](CN[C@@H](CN)CCCCNC)NCCCc1cccc(Br)c1 [Compound 2471-31] | 160 | 
CCC[C@H](CN[C@@H](CN)CCCCNC)NCCCc1ccc(O)c(O)c1 [Compound 2471-32] | > 160 | 
CCCC[C@@H](CN[C@@H](CN)CCCCNC)NCCCc1cccc(Br)c1 [Compound 2471-34] | 160 | 
CCCC[C@@H](CN[C@@H](CN)CCCCNC)NCCCc1ccc(O)c(O)c1 [Compound 2471-35] | > 160 | 
CCCC[C@H](CN[C@H](CN)CC1CCCCC1)NCC1CCC(C(C)(C)C)CC1 (some centres unmarked) [Compound 2471-50] | 160 | 

SMILES | IC50 [1] [µM] | further results
CCCC[C@H](CN[C@H](CN)CC1CCCCC1)NCCCCCC1CCCCC1 [Compound 2471-51] | 160 | 
CNCCC[C@@H](CN[C@H](CN)CC1CCCCC1)NCCCc1cc(C(F)(F)F)cc(C(F)(F)F)c1 [Compound 2471-52] | 160 | 
CNCCC[C@@H](CN[C@H](CN)CC1CCCCC1)NCC1CCC(C(C)(C)C)CC1 (some centres unmarked) [Compound 2471-53] | > 160 | 
CNCCC[C@@H](CN[C@H](CN)CC1CCCCC1)NCCCCCC1CCCCC1 [Compound 2471-54] | > 160 | 
CNCCC[C@H](CN[C@H](CN)CC1CCCCC1)NCCCc1cc(C(F)(F)F)cc(C(F)(F)F)c1 [Compound 2471-55] | 160 | 
CNCCC[C@H](CN[C@H](CN)CC1CCCCC1)NCC1CCC(C(C)(C)C)CC1 (some centres unmarked) [Compound 2471-56] | 160 | 
CNCCC[C@H](CN[C@H](CN)CC1CCCCC1)NCCCCCC1CCCCC1 [Compound 2471-57] | 160 | 
CCCC[C@H](CN[C@@H](CN)CC1CCCCC1)NCC1CCC(C(C)(C)C)CC1 (some centres unmarked) [Compound 2471-62] | 160 | 
CCCC[C@H](CN[C@@H](CN)CC1CCCCC1)NCCCCCC1CCCCC1 [Compound 2471-63] | 160 | 
CNCCC[C@@H](CN[C@@H](CN)CC1CCCCC1)NCCCc1cc(C(F)(F)F)cc(C(F)(F)F)c1 [Compound 2471-64] | 160 | 
CNCCC[C@@H](CN[C@@H](CN)CC1CCCCC1)NCC1CCC(C(C)(C)C)CC1 (some centres unmarked) [Compound 2471-65] | 160 | 
CNCCC[C@@H](CN[C@@H](CN)CC1CCCCC1)NCCCCCC1CCCCC1 [Compound 2471-66] | 160 | 
CNCCC[C@H](CN[C@@H](CN)CC1CCCCC1)NCCCc1cc(C(F)(F)F)cc(C(F)(F)F)c1 [Compound 2471-67] | 160 | 
CNCCC[C@H](CN[C@@H](CN)CC1CCCCC1)NCC1CCC(C(C)(C)C)CC1 (some centres unmarked) [Compound 2471-68] | 160 | 
CC(C)(C)C1CCC(CN[C@H](CN[C@@H](CN)CC2CCCCC2)Cc2ccc(F)cc2)CC1 (some centres unmarked) [Compound 2471-71] | 40 | 
CCC[C@H](CN)NC[C@@H](CCCNC(=N)N)NCCc1cccc2ccccc12 [Compound 2580-3] |  | IC50 [2]: > 80 µM; IC50 [3, 6]: > 80 µM; IC50 [4]: > 80 µM; IC50 [5]: 6 µM
CNCCC[C@H](CN)NC[C@@H](CCCNC(=N)N)NCCc1cccc2ccccc12 [Compound 2580-15] |  | IC50 [2]: > 90 µM; IC50 [3, 6]: > 90 µM; IC50 [4]: > 90 µM; IC50 [5]: 0.73 µM
CCCC[C@H](CN[C@@H](CN)CCCNC)NCCc1cccc2ccccc12 [Compound 2580-18] |  | IC50 [2]: > 100 µM; IC50 [3, 6]: > 100 µM; IC50 [4]: > 100 µM; IC50 [5]: 3.2 µM
CNCCC[C@H](CN)NC[C@@H](Cc1ccc2ccccc2c1)NCCc1cccc2ccccc12 [Compound 2580-24] |  | IC50 [2]: > 85 µM; IC50 [3]: > 85 µM; IC50 [4]: > 85 µM; IC50 [5]: 8 µM
CNCCC[C@@H](CN[C@@H](CN)Cc1ccc2ccccc2c1)NCCc1cccc2ccccc12 [Compound 2580-33] |  | IC50 [2]: > 85 µM; IC50 [3]: > 85 µM; IC50 [4]: > 85 µM; IC50 [5]: 8 µM
